Laboratory results published in patent US10647699B2, “Substituted 2-oxyimidazolylcarboxamides as pesticides” (Bayer CropScience Aktiengesellschaft, priority 2016, dated 2020).

Assays:
[1] = test system: Myzus persicae; experiment: Myzus persicae spray test on bell pepper plants; format: in vivo; settings: after 6 days, application rate 20 ppm
Experimental: Myzus persicae-Spray Test
(§1) Solvent: 14 parts by weight of dimethylformamide
(§2) Emulsifier: alkylaryl polyglycol ether
(§3) To produce a suitable preparation of active compound, 1 part by weight of active compound is dissolved using the specified parts by weight of solvent and made up with water containing an emulsifier concentration of 1000 ppm until the desired concentration is attained. To produce further test concentrations, the formulation is diluted with emulsifier-containing water. If the addition of ammonium salts or/and penetrants is required, these are each added in a concentration of 1000 ppm to the formulation solution.
Bell pepper plants (Capsicum annuum) severely infested with the green peach aphid (Myzus persicae) are treated by spraying with the active compound formulation in the desired concentration.
After 6 days, the kill in % is determined. 100% means that all of the aphids have been killed; 0% means that none of the aphids have been killed.

[2] = test system: Boophilus microplus; experiment: Boophilus microplus injection test; format: in vivo; settings: 20 μg/animal, assessed after 7 days
Experimental: Boophilus microplus—Injection Test Solvent: dimethyl sulphoxide To produce a suitable preparation of active compound, 10 mg of active compound are mixed with 0.5 ml of solvent and the concentrate is diluted with solvent to the desired concentration. […] The animals are transferred into dishes and kept in a climate-controlled room. Efficacy is assessed after 7 days by laying of fertile eggs. Eggs which are not visibly fertile are stored in a climate-controlled cabinet until the larvae hatch after about 42 days.

[3] = test system: Myzus persicae; experiment: Myzus persicae oral test (MYZUPE O); format: in vivo; settings: for Emax at 0.8 ppm / Emax at 4 ppm / pest or weed control at 20 ppm: Myzus persicae, po, 120 h; for Emax at 0.8 ppm / Emax at 4 ppm: MYZUPE O, 5 dat, read-out: % efficacy; for pest or weed control at 20 ppm / efficacy: after 5 days, application rate 20 ppm; for pest or weed control at 20 ppm: read-out: efficacy
Experimental: Solvent: 100 parts by weight of acetone
To produce a suitable preparation of active compound, 1 part by weight of active compound is dissolved using the specified parts by weight of solvent and made up with water until the desired concentration is attained.
50 μl of the active compound preparation are transferred into microtitre plates and made up to a final volume of 200 μl with 150 μl of IPL41 insect medium (33%+15% sugar). Subsequently, the plates are sealed with parafilm, which a mixed population of green peach aphids (Myzus persicae) within a second microtitre plate is able to puncture and imbibe the solution through it.
After 5 days, the efficacy in % is determined. 100% means that all the aphids have been killed; 0% means that no aphids have been killed.
Myzus persicae—Oral Test (MYZUPE O)
After 5 or 6 days (dat), the efficacy in % is determined. 100% means that all the aphids have been killed; 0% means that no aphids have been killed.

[4] = log P by HPLC on reversed-phase columns (OECD Guideline 117), neutral range; format: physicochemical; settings: for chromatographic logP: reversed-phase (C18) HPLC column, read-out: LogP-neutral
[5] = test system: Aphis gossypii; experiment: Aphis gossypii spray test on cotton plants; format: in vivo; settings: after 6 days, application rate 20 ppm, cotton plants; for pest or weed control at 20 ppm: Aphis gossypii, 144 h, read-out: efficacy (kill)
Experimental: Aphis gossypii—Spray Test
as §1, §2, §3
Cotton plants (Gossypium hirsutum) which are heavily infested by the cotton aphid (Aphis gossypii) are sprayed with an active compound formulation of the desired concentration.
After 6 days, the kill in % is determined. 100% means that all the aphids have been killed; 0% means that no aphids have been killed.

[6] = test system: Myzus persicae; experiment: Myzus persicae spray test (MYZUPE), Chinese cabbage leaf discs; format: in vivo; settings: for Emax at 100 g/ha / pest or weed control at 500 g/ha: Myzus persicae, foliar, 144 h; for Emax at 100 g/ha: MYZUPE, 100 g of ai/ha, 6 dat, read-out: % efficacy; for pest or weed control at 500 g/ha: after 6 days, read-out: efficacy; for pest or weed control at 500 g/ha / efficacy: application rate 500 g/ha; for efficacy: after 5 days
Experimental: Myzus persicae—Spray Test
as §3, with “water.” for “water. If the addition of ammonium salts or/and penetrants is required, these are each added in a concentration of 1000 ppm to the formulation solution.”
Discs of Chinese cabbage leaves (Brassica pekinensis) infested by all stages of the green peach aphid (Myzus persicae) are sprayed with an active compound formulation of the desired concentration.
After 5 or 6 days, the efficacy in % is determined. 100% means that all the aphids have been killed; 0% means that no aphids have been killed.
Myzus persicae—Spray Test (MYZUPE)
Discs of Chinese cabbage leaves (Brassica pekinensis) infested by all stages of the green peach aphid (Myzus persicae) are sprayed with an active compound preparation of the desired concentration.
After the desired period of time, the efficacy in % is determined. 100% means that all the aphids have been killed; 0% means that no aphids have been killed.

[7] = test system: Tetranychus urticae; experiment: Tetranychus urticae spray test, OP-resistant, bean leaf discs; format: in vivo; settings: after 6 days, application rate 500 g/ha
Experimental: Tetranychus urticae—Spray Test, OP-Resistant
as §3, with “water.” for “water. If the addition of ammonium salts or/and penetrants is required, these are each added in a concentration of 1000 ppm to the formulation solution.”
Discs of bean leaves (Phaseolus vulgaris) infested with all stages of the greenhouse red spider mite (Tetranychus urticae) are sprayed with an active compound formulation of the desired concentration.
After 6 days, the efficacy in % is determined. 100% means that all the spider mites have been killed; 0% means that no spider mites have been killed.

| LogP-neutral ([4]; pH 7.8) | SMILES | efficacy [7] | efficacy [3] | LogP-neutral ([4]; HPLC, neutral range pH 7.8) | efficacy (kill) [5] | efficacy [6] | also measured |
| --- | --- | --- | --- | --- | --- | --- | --- |
| – | CC(C)Oc1ncc(C(=O)N(C)c2cccnc2)n1C [Example II-1] | – | – | – | – | – | efficacy (kill) [1]: 100%; efficacy (no fertile eggs laid) [2]: 100%; Emax at 0.8 ppm [3]: 90%; Emax at 4 ppm [3]: 100%; pest or weed control at 20 ppm [3]: 100%; chromatographic logP ([4]; HPLC, neutral range pH 7.8): 1.47; pest or weed control at 20 ppm [5]: 100% |
| – | CN(C(=O)c1cnc(Oc2cc(F)ccc2F)n1C)c1cccnc1 [Example II-14] | 90% | – | – | – | – | Emax at 100 g/ha [6]: 90%; pest or weed control at 500 g/ha [6]: 100%; Emax at 0.8 ppm [3]: 90%; pest or weed control at 20 ppm [3]: 100%; chromatographic logP ([4]; HPLC, neutral range pH 7.8): 1.87; pest or weed control at 20 ppm [5]: 99% |
| – | CN(C(=O)c1cnc(Oc2ccc(F)cc2)n1C)c1cccnc1 [Example II-19] | – | 100% | 1.76 | 100% | – | efficacy (kill) [1]: 95% |
| – | CN(C(=O)c1cnc(OCCC(F)(F)F)n1C)c1cccnc1 [Example II-23] | 100% | – | – | – | – | Emax at 100 g/ha [6]: 90%; pest or weed control at 500 g/ha [6]: 90%; Emax at 0.8 ppm [3]: 100%; Emax at 4 ppm [3]: 100%; pest or weed control at 20 ppm [3]: 100%; pest or weed control at 20 ppm [5]: 95% |
| 1.38 | C=CCOc1ncc(C(=O)N(C)c2cccnc2)n1C [Example II-37] | 90% | 100% | – | 100% | 100% | – |
| – | CN(C(=O)c1cnc(OCCCC#N)n1C)c1cccnc1 [Example II-38] | – | 100% | 1.08 | 98% | 90% | – |
| – | CN(C(=O)c1cnc(Oc2ccc(F)nc2)n1C)c1cccnc1 [Example II-40] | – | 100% | 1.33 | 100% | 100% | efficacy (no fertile eggs laid) [2]: 80% |
| 1.57 | CN(C(=O)c1cnc(Oc2cncc(Cl)c2)n1C)c1cccnc1 [Example II-41] | – | 100% | – | 100% | 100% | – |
| 1.3 | CN(C(=O)c1cnc(Oc2cncc(F)c2)n1C)c1cccnc1 [Example II-42] | – | 100% | – | 100% | 90% | – |
| 1.83 | CN(C(=O)c1cnc(Oc2cncc(C(F)(F)F)c2)n1C)c1cccnc1 [Example II-43] | – | 100% | – | 100% | 90% | – |
| – | CN(C(=O)c1cnc(Oc2ccc(Oc3ccc(Cl)nc3)nc2)n1C)c1cccnc1 [Example II-45] | – | 100% | – | 99% | – | efficacy (kill) [1]: 98% |
| – | CCN(C(=O)c1cnc(OCCCC#N)n1C)c1cccnc1 [Example II-47] | – | 100% | 1.33 | 100% | 90% | – |
| – | CN(C(=O)c1cnc(Oc2ccc(C#N)nc2)n1C)c1cccnc1 [Example II-58] | – | 100% | 1.1 | 100% | 90% | – |
| 3.19 | CCCCSc1cccc(Oc2ncc(C(=O)N(C)c3cccnc3)n2C)c1 [Example II-82] | 100% | 100% | – | – | 100% | – |
| 2.87 | CN(C(=O)c1cnc(Oc2cc(Cl)cc(C(F)(F)F)c2)n1C)c1cccnc1 [Example II-87] | 90% | 100% | – | – | 90% | – |
| – | CN(C(=O)c1cnc(Oc2ccc(F)c(Cl)c2)n1C)c1cccnc1 [Example II-89] | 100% | 100% | 2.17 | – | 100% | – |
| 2.59 | Cn1c(C(=O)N(c2cccnc2)C2CC2)cnc1Oc1cccc(C(F)(F)F)c1 [Example II-94] | 90% | 100% | – | – | – | – |

| SMILES | LogP-neutral ([4]; pH 7.8) | efficacy [7] | efficacy [3] | LogP-neutral ([4]; HPLC, neutral range pH 7.8) | efficacy (kill) [5] | efficacy [6] | also measured |
| --- | --- | --- | --- | --- | --- | --- | --- |
| CCN(C(=O)c1cnc(OC(C)C)n1C)c1cccnc1 [Example II-46] | 1.7 | – | 100% | – | 100% | 100% | – |
| CN(C(=O)c1cnc(Oc2cccc(Oc3ccccc3)c2)n1C)c1cccnc1 [Example II-81] | 2.72 | 100% | – | – | – | – | – |
